Experimental data reported in PubChem BioAssay (NCI).
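Briefly, cells in 96-well plates were exposed to five compound concentrations for 48 h, and endpoints were estimated by linear interpolation. At the TGI there is no net growth.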

How the values were obtained:
Test in all cases: growth of human tumour cells (NCI), 48 h
786-0 renal = system: 786-0 renal
A498 renal = system: A498 renal
A549 NSCLC = system: A549 NSCLC
ACHN renal = system: ACHN renal
BT-549 breast = system: BT-549 breast
CAKI-1 renal = system: CAKI-1 renal
CCRF-CEM leukemia = system: CCRF-CEM leukemia
COLO 205 colon = system: COLO 205 colon
DU-145 prostate = system: DU-145 prostate
EKVX NSCLC = system: EKVX NSCLC
HCC-2998 colon = system: HCC-2998 colon
HCT-116 colon = system: HCT-116 colon
HCT-15 colon = system: HCT-15 colon
HL-60(TB) leukemia = system: HL-60(TB) leukemia
HOP-62 NSCLC = system: HOP-62 NSCLC
HOP-92 NSCLC = system: HOP-92 NSCLC
HS 578T breast = system: HS 578T breast
HT29 colon = system: HT29 colon
IGROV1 ovarian = system: IGROV1 ovarian
K-562 leukemia = system: K-562 leukemia
KM12 colon = system: KM12 colon
LOX IMVI melanoma = system: LOX IMVI melanoma
M14 melanoma = system: M14 melanoma
MALME-3M melanoma = system: MALME-3M melanoma
MCF7 breast = system: MCF7 breast
MDA-MB-231 breast = system: MDA-MB-231 breast
MDA-MB-435 = system: MDA-MB-435
MDA-N = system: MDA-N
MOLT-4 leukemia = system: MOLT-4 leukemia
NCI-H226 lung = system: NCI-H226 lung
NCI-H23 lung = system: NCI-H23 lung
NCI-H460 lung = system: NCI-H460 lung
NCI-H522 lung = system: NCI-H522 lung
NCI/ADR-RES ovarian = system: NCI/ADR-RES ovarian
OVCAR-3 ovarian = system: OVCAR-3 ovarian
OVCAR-4 ovarian = system: OVCAR-4 ovarian
OVCAR-5 ovarian = system: OVCAR-5 ovarian
OVCAR-8 ovarian = system: OVCAR-8 ovarian
PC-3 prostate = system: PC-3 prostate
RPMI-8226 leukemia = system: RPMI-8226 leukemia
RXF 393 renal = system: RXF 393 renal
SF-268 CNS = system: SF-268 CNS
SF-295 CNS = system: SF-295 CNS
SK-MEL-2 melanoma = system: SK-MEL-2 melanoma
SK-MEL-28 melanoma = system: SK-MEL-28 melanoma
SK-MEL-5 melanoma = system: SK-MEL-5 melanoma
SK-OV-3 ovarian = system: SK-OV-3 ovarian
SN12C renal = system: SN12C renal
SNB-19 CNS = system: SNB-19 CNS
SW-620 colon = system: SW-620 colon
T-47D breast = system: T-47D breast
TK-10 renal = system: TK-10 renal
U251 CNS = system: U251 CNS
UACC-257 melanoma = system: UACC-257 melanoma
UACC-62 melanoma = system: UACC-62 melanoma
UO-31 renal = system: UO-31 renal
SF-539 CNS = system: SF-539 CNS
SNB-75 CNS = system: SNB-75 CNS
SR leukemia = system: SR leukemia

COc1ccccc1N=N/C(=N/NC(=O)c1ccc(C)cc1)c1ccc(N(CCC#N)CCC#N)cc1OC
TGI (786-0 renal): > 100 µM
TGI (A498 renal): 55.8 µM
TGI (A549 NSCLC): > 100 µM
TGI (ACHN renal): 55.9 µM
TGI (BT-549 breast): 97.4 µM
TGI (CAKI-1 renal): > 100 µM
TGI (CCRF-CEM leukemia): 40.9 µM
TGI (COLO 205 colon): 31.1 µM
TGI (DU-145 prostate): > 100 µM
TGI (EKVX NSCLC): 69.2 µM
TGI (HCC-2998 colon): > 100 µM
TGI (HCT-116 colon): 59.9 µM
TGI (HCT-15 colon): > 100 µM
TGI (HL-60(TB) leukemia): 26.5 µM
TGI (HOP-62 NSCLC): > 100 µM
TGI (HOP-92 NSCLC): 95.1 µM
TGI (HS 578T breast): > 100 µM
TGI (HT29 colon): 85.4 µM
TGI (IGROV1 ovarian): > 100 µM
TGI (K-562 leukemia): > 100 µM
TGI (KM12 colon): 84.4 µM
TGI (LOX IMVI melanoma): > 100 µM
TGI (M14 melanoma): > 100 µM
TGI (MALME-3M melanoma): 81.9 µM
TGI (MCF7 breast): 63.1 µM
TGI (MDA-MB-231 breast): 79.4 µM
TGI (MDA-MB-435): > 100 µM
TGI (MDA-N): 53.5 µM
TGI (MOLT-4 leukemia): 49.6 µM
TGI (NCI-H226 lung): > 100 µM
TGI (NCI-H23 lung): > 100 µM
TGI (NCI-H460 lung): > 100 µM
TGI (NCI-H522 lung): 79 µM
TGI (NCI/ADR-RES ovarian): > 100 µM
TGI (OVCAR-3 ovarian): > 100 µM
TGI (OVCAR-4 ovarian): > 100 µM
TGI (OVCAR-5 ovarian): > 100 µM
TGI (OVCAR-8 ovarian): > 100 µM
TGI (PC-3 prostate): 71.2 µM
TGI (RPMI-8226 leukemia): 33.5 µM
TGI (RXF 393 renal): > 100 µM
TGI (SF-268 CNS): 77.8 µM
TGI (SF-295 CNS): > 100 µM
TGI (SK-MEL-2 melanoma): 39.5 µM
TGI (SK-MEL-28 melanoma): > 100 µM
TGI (SK-MEL-5 melanoma): > 100 µM
TGI (SK-OV-3 ovarian): > 100 µM
TGI (SN12C renal): 72.4 µM
TGI (SNB-19 CNS): > 100 µM
TGI (SW-620 colon): > 100 µM
TGI (T-47D breast): 96 µM
TGI (TK-10 renal): > 100 µM
TGI (U251 CNS): > 100 µM
TGI (UACC-257 melanoma): > 100 µM
TGI (UACC-62 melanoma): > 100 µM
TGI (UO-31 renal): > 100 µM

COc1ccc(N=C2C(=Nc3ccc(OC)cc3)N(S(=O)(=O)c3ccccc3)C(=S)N2c2ccc(OC)cc2)cc1
TGI (786-0 renal): > 100 µM
TGI (A549 NSCLC): > 100 µM
TGI (ACHN renal): > 100 µM
TGI (BT-549 breast): > 100 µM
TGI (CAKI-1 renal): > 100 µM
TGI (COLO 205 colon): > 100 µM
TGI (DU-145 prostate): > 100 µM
TGI (EKVX NSCLC): > 100 µM
TGI (HCC-2998 colon): > 100 µM
TGI (HCT-116 colon): > 100 µM
TGI (HCT-15 colon): > 100 µM
TGI (HOP-62 NSCLC): > 100 µM
TGI (HOP-92 NSCLC): > 100 µM
TGI (HS 578T breast): > 100 µM
TGI (IGROV1 ovarian): > 100 µM
TGI (K-562 leukemia): > 100 µM
TGI (KM12 colon): > 100 µM
TGI (M14 melanoma): > 100 µM
TGI (MCF7 breast): > 100 µM
TGI (MDA-MB-231 breast): 92.1 µM
TGI (MDA-MB-435): > 100 µM
TGI (MDA-N): > 100 µM
TGI (MOLT-4 leukemia): > 100 µM
TGI (NCI-H226 lung): > 100 µM
TGI (NCI-H23 lung): > 100 µM
TGI (NCI-H522 lung): > 100 µM
TGI (NCI/ADR-RES ovarian): > 100 µM
TGI (OVCAR-3 ovarian): > 100 µM
TGI (OVCAR-5 ovarian): > 100 µM
TGI (OVCAR-8 ovarian): > 100 µM
TGI (PC-3 prostate): > 100 µM
TGI (RPMI-8226 leukemia): > 100 µM
TGI (RXF 393 renal): > 100 µM
TGI (SF-268 CNS): > 100 µM
TGI (SF-295 CNS): > 100 µM
TGI (SF-539 CNS): > 100 µM
TGI (SK-MEL-2 melanoma): > 100 µM
TGI (SK-MEL-28 melanoma): > 100 µM
TGI (SK-MEL-5 melanoma): > 100 µM
TGI (SK-OV-3 ovarian): > 100 µM
TGI (SN12C renal): > 100 µM
TGI (SNB-19 CNS): > 100 µM
TGI (SNB-75 CNS): 38.8 µM
TGI (SR leukemia): > 100 µM
TGI (SW-620 colon): > 100 µM
TGI (T-47D breast): > 100 µM
TGI (TK-10 renal): > 100 µM
TGI (U251 CNS): > 100 µM
TGI (UACC-62 melanoma): > 100 µM
TGI (UO-31 renal): > 100 µM
